Measured values published in patent US20120264830A1, “CHONDROITIN SULFATE-POLYCAPROLACTONE COPOLYMER, METHOD FOR PREPARING THE SAME AND APPLICATION THEREOF” (KAOHSIUNG MEDICAL UNIVERSITY, priority 2011, published 2012).

System: lung cancer cell CRL-5802
Assay: Cytotoxicity test of the medical composition and of camptothecin (MTT)
Type: cell-based
Details: CRL-5802 cells, camptothecin concentration 1 μg/mL, treatment time 24 hours
Protocol: 5000 cells/well of CRL-5802 were placed in a 96-well plate containing 100 μL of DMEM, followed by cultivation for 24 hours at 37° C. and 5% CO2. The cell culture medium was periodically replaced during the cultivation period. Thereafter, the medical composition described in the section of “Preparation of medical composition” was mixed with DMEM to prepare an original solution having a concentration of 250 μg/mL (the concentration of camptothecin was 10 μg/mL). The original solution was diluted with DMEM to obtain six diluted solutions such that the concentrations of camptothecin in the six diluted solutions were respectively 4 μg/mL, 2 μg/mL, 1 μg/mL, 0.2 μg/mL, 0.1 μg/mL and 0.04 μg/mL. The original solution and the six diluted solutions were added into the respective wells containing cell s such that the final concentrations of camptothecin were adjusted to 5 μg/mL, 2 μg/mL, 1 μg/mL, 0.5 μg/mL, 0.1 μg/mL, 0.05 μg/mL, and 0.02 μg/mL respectively (experimental groups). The cells in the control group were cultured with DMEM without addition of the medical composition. The cells were further cultivated for 24 hours. […] The absorbance of each of the wells containing cells at 490 nm was recorded, thereby calculating the cell survival rate based on the aforesaid equation. […]

CC[C@@]1(O)C(=O)OCc2c1cc1n(c2=O)Cc2cc3ccccc3nc2-1 [camptothecin]
cell survival rate: 30%
